Data taken from paper PMC7010297, “How the initiating ribosome copes with ppGpp to translate mRNAs” (PLoS Biology, 2020).
“And” between values parts separate entries of the source, which are not always exact repeats. Equal values may be shown once. Read-outs that look alike come from different tables or passages of the source.

Tests used:
Format in all cases: binding
30S-bound IF2 (30S IC) = molecular target: T1, 30S-bound IF2 (30S IC) (Escherichia coli, UniProt P0A705); assay: ppGpp (or GDP) to GTP competitive assay for 30S IC formation by MST
T1 construct: 6xHis (N); made in house
T1 sequence (P0A705 whole entry, looked up): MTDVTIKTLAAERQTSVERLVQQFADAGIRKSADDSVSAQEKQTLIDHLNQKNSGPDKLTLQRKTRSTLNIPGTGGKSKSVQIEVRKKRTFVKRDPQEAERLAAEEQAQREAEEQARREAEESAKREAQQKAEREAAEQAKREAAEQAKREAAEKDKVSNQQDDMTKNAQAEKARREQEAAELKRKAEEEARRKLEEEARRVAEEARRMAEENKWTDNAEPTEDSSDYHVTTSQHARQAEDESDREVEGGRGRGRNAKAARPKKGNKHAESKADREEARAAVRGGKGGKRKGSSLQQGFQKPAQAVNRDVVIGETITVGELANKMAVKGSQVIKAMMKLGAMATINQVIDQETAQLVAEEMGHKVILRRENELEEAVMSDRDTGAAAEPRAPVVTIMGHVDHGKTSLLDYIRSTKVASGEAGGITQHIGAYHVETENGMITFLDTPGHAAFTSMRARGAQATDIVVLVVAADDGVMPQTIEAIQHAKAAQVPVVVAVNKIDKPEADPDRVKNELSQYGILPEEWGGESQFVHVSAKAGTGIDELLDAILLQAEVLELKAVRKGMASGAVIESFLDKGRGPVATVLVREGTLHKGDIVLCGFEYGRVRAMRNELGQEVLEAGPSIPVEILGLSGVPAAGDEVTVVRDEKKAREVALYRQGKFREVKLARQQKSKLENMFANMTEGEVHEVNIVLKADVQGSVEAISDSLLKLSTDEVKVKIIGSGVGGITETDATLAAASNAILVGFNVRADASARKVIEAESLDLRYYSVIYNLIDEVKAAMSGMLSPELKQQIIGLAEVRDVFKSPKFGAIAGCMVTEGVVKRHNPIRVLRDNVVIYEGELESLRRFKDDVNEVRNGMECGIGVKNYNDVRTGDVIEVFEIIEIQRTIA
Description: MST was calculated from the respective fluorescence time dependencies (S3 Fig). […] Symbols as in (B). […] Continuous lines indicate nonlinear regression fittings with quadratic (B and E) or same-site competition (G) functions. Three measurements were performed; mean and standard deviations are plotted (S1 Data).
[…] Symbols are as indicated, 3 measurements were performed, and mean and standard deviation are plotted (S1 Data). Continuous lines show nonlinear regression fittings with a same-site inhibition model. […] (PDF) Click here for additional data file.

IF2 = molecular target: T2, IF2 (Escherichia coli, UniProt P0A705); assay: IF2-Bpy-tRNAi-GNP ternary complex formation by MST; conditions: S2A Fig
T2 construct: 6xHis (N); made in house
T2 sequence (P0A705 whole entry): as the sequence (P0A705 whole entry, looked up) above
Description: Supplementary file pbio.3000593.s002.pdf: S2 Fig IF2-Bpy-tRNAi complex formation as a function of guanosine nucleotides. (A) IF2 concentration dependencies for Bpy-tRNAi binding in the presence of 0.5 mM of the indicated guanosine nucleotides to build IF2-tRNA-GNP ternary complexes (TCs). […] Three to five measurements were performed; mean and standard deviation are plotted (S1 Data). […] (PDF) Click here for additional data file.

[1] = molecular target: T3, 30S IC (30S-bound IF2, Bpy-tRNAi) (Escherichia coli, UniProt P0A705); assay: 30S IC formation measured by MST at increasing concentrations of IF2 with guanosine nucleotides; conditions: Fig 2A
T3 construct: 6xHis (N); made in house
T3 sequence (P0A705 whole entry, looked up): as above
Method in brief: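 Binding of fluorescent Bpy-tRNAi to E. coli 30S subunits monitored by microscale thermophoresis over increasing IF2 with each guanosine nucleotide; nucleotide titrations used IF2 fixed at 1 μM. Dissociation constants from quadratic fits of Ff/Fi; triplicate measurements.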

IF2-bound 30S IC = molecular target: T4, IF2-bound 30S IC (Escherichia coli, UniProt P0A705); assay: 30S IC formation by MST, guanosine nucleotide titration; conditions: for MST Average / MST Replicates (a.u.): Fig 2B (GDP/ppGpp series);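 on MST Average: lower thermophoresis signal means Bpy-tRNAi dissociation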;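 on MST Replicates (a.u.): lower thermophoresis signal means Bpy-tRNAi dissociation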
T4 construct: 6xHis (N); made in house
T4 sequence (P0A705 whole entry, looked up): as above
Method in brief: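 Binding of fluorescently labelled initiator tRNA (Bpy-tRNAi) to E. coli 30S subunits followed by microscale thermophoresis, titrating guanosine nucleotides at constant 1 μM IF2. Dissociation constants from quadratic nonlinear fits of Ff/Fi versus ligand concentration; three measurements, mean ± SD.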

Nc1nc2c(ncn2[C@@H]2O[C@H](COP(=O)(O)OP(=O)(O)O)[C@@H](O)[C@H]2O)c(=O)[nH]1 [GDP, guanosine diphosphate]
IC50 (30S-bound IF2 (30S IC); mRNA mInfA, read-out: IC50 Average): 126 µM | IC50 (30S-bound IF2 (30S IC); mRNA mInfA, read-out: IC50 Replicates): 124 µM and 128 µM and 126 µM | IC50 (30S-bound IF2 (30S IC); mRNA mMF1, read-out: IC50 Average): 38.6 µM | IC50 (30S-bound IF2 (30S IC); mRNA mMF1, read-out: IC50 Replicates): 37.5 µM and 39.6 µM and 38.8 µM | IC50 (30S-bound IF2 (30S IC); mRNA mTufA, read-out: IC50 Average): 173 µM | IC50 (30S-bound IF2 (30S IC); mRNA mTufA, read-out: IC50 Replicates): 168 µM and 176 µM (2×) | MST Average (IF2; IF2 0.08 µM): 942.60 a.u. | MST Replicates (IF2; IF2 0.08 µM): 949.60 a.u. and 944.98 a.u. and 933.23 a.u. | MST Average (IF2; IF2 0.16 µM): 942.82 a.u. | MST Replicates (IF2; IF2 0.16 µM): 948.93 a.u. and 934.15 a.u. and 945.38 a.u. | MST Average (IF2; IF2 0.31 µM): 943.82 a.u. | MST Replicates (IF2; IF2 0.31 µM): 946.47 a.u. and 934.49 a.u. and 950.50 a.u. | MST Average (IF2; IF2 0.63 µM): 944.11 a.u. | MST Replicates (IF2; IF2 0.63 µM): 935.16 a.u. and 946.20 a.u. and 950.97 a.u. | MST Average (IF2; IF2 1.25 µM): 945.61 a.u. | MST Replicates (IF2; IF2 1.25 µM): 951.42 a.u. and 947.72 a.u. and 937.68 a.u. | MST Average (IF2; IF2 2.50 µM): 948.90 a.u. | MST Replicates (IF2; IF2 2.50 µM): 941.84 a.u. and 953.50 a.u. and 951.35 a.u. | MST Average (IF2; IF2 5.00 µM): 954.49 a.u. | MST Replicates (IF2; IF2 5.00 µM): 948.07 a.u. and 955.91 a.u. and 959.48 a.u. | MST Average (IF2; IF2 10.00 µM): 962.55 a.u. | MST Replicates (IF2; IF2 10.00 µM): 958.33 a.u. and 964.33 a.u. and 964.97 a.u. | MST Average (IF2; IF2 20.00 µM): 973.27 a.u. | MST Replicates (IF2; IF2 20.00 µM): 973.71 a.u. and 974.19 a.u. and 971.91 a.u. | MST Average (IF2; IF2 40.00 µM): 980.27 a.u. | MST Replicates (IF2; IF2 40.00 µM): 984.66 a.u. and 983.20 a.u. and 972.95 a.u. | MST Average ([1]; IF2 0.16 µM): 936.66 a.u. | MST Replicates (a.u.) ([1]; IF2 0.16 µM, in the presence of the nucleotide): 938.79 a.u. and 935.06 a.u. and 936.14 a.u. | MST Average ([1]; IF2 0.31 µM): 942.67 a.u. | MST Replicates (a.u.) ([1]; IF2 0.31 µM): 943.24 a.u. and 941.18 a.u. and 943.58 a.u. | MST Average ([1]; IF2 0.63 µM): 949.91 a.u. | MST Replicates (a.u.) ([1]; IF2 0.63 µM): 951.36 a.u. and 947.80 a.u. and 950.56 a.u. | MST Average ([1]; IF2 1.25 µM): 961.16 a.u. | MST Replicates (a.u.) ([1]; IF2 1.25 µM): 962.03 a.u. and 959.55 a.u. and 961.91 a.u. | MST Average ([1]; IF2 2.50 µM): 966.51 a.u. | MST Replicates (a.u.) ([1]; IF2 2.50 µM): 967.31 a.u. and 965.43 a.u. and 966.81 a.u. | MST Average ([1]; IF2 5.00 µM): 968.29 a.u. | MST Replicates (a.u.) ([1]; IF2 5.00 µM): 968.72 a.u. and 967.06 a.u. and 969.08 a.u. | MST Average (IF2-bound 30S IC; nucleotide 0.13 µM): 933.71 a.u. | MST Replicates (a.u.) (IF2-bound 30S IC; nucleotide 0.13 µM, constant IF2 (1 μM)): 931.66 a.u. and 934.22 a.u. and 933.66 a.u. and 935.28 a.u. | MST Average (IF2-bound 30S IC; nucleotide 0.25 µM): 934.55 a.u. | MST Replicates (a.u.) (IF2-bound 30S IC; nucleotide 0.25 µM): 933.08 a.u. and 934.64 a.u. and 934.32 a.u. and 936.15 a.u. | MST Average (IF2-bound 30S IC; nucleotide 0.50 µM): 935.70 a.u. | MST Replicates (a.u.) (IF2-bound 30S IC; nucleotide 0.50 µM): 933.41 a.u. and 935.59 a.u. and 935.81 a.u. and 937.99 a.u. | MST Average (IF2-bound 30S IC; nucleotide 1.00 µM): 937.58 a.u. | MST Replicates (a.u.) (IF2-bound 30S IC; nucleotide 1.00 µM): 936.31 a.u. and 938.31 a.u. and 936.76 a.u. and 938.95 a.u. | MST Average (IF2-bound 30S IC; nucleotide 2.00 µM): 940.10 a.u. | MST Replicates (a.u.) (IF2-bound 30S IC; nucleotide 2.00 µM): 938.98 a.u. and 940.66 a.u. and 939.47 a.u. and 941.28 a.u. | MST Average (IF2-bound 30S IC; nucleotide 4.00 µM): 942.84 a.u. | MST Replicates (a.u.) (IF2-bound 30S IC; nucleotide 4.00 µM): 941.71 a.u. and 943.61 a.u. and 942.43 a.u. and 943.60 a.u. | MST Average (IF2-bound 30S IC; nucleotide 8.00 µM): 945.64 a.u. | MST Replicates (a.u.) (IF2-bound 30S IC; nucleotide 8.00 µM): 944.41 a.u. and 946.59 a.u. and 945.06 a.u. and 946.52 a.u. | MST Average (IF2-bound 30S IC; nucleotide 16.00 µM): 952.27 a.u. | MST Replicates (a.u.) (IF2-bound 30S IC; nucleotide 16.00 µM): 951.48 a.u. and 953.11 a.u. and 951.45 a.u. and 953.06 a.u. | MST Average (IF2-bound 30S IC; nucleotide 31.00 µM): 953.23 a.u. | MST Replicates (a.u.) (IF2-bound 30S IC; nucleotide 31.00 µM): 951.79 a.u. and 954.63 a.u. and 951.76 a.u. and 954.74 a.u. | MST Average (IF2-bound 30S IC; nucleotide 62.00 µM): 952.59 a.u. | MST Replicates (a.u.) (IF2-bound 30S IC; nucleotide 62.00 µM): 952.17 a.u. and 953.16 a.u. and 951.66 a.u. and 953.37 a.u. | MST Average (IF2-bound 30S IC; nucleotide 125.00 µM): 950.10 a.u. | MST Replicates (a.u.) (IF2-bound 30S IC; nucleotide 125.00 µM): 949.56 a.u. and 950.68 a.u. and 949.29 a.u. and 950.89 a.u. | promotion of Bpy-tRNAi binding (thermophoresis) in guanosine nucleotide titration (IF2-bound 30S IC; constant IF2 (1 μM)): failed to promote Bpy-tRNAi binding at any concentration
